According to US20250090515A1, “1-Deoxynojirimycin To Mitigate Hepatic Ischemia- Reperfusion” (KING FAISAL UNIVERSITY, priority 2023, published 2025):

Legend:
Assay type in all cases: in vivo, Wistar male rats
H I/R-induced injury [1] = experiment: Hepatic oxidative stress biomarkers in hepatic tissue homogenate after hepatic ischemia-reperfusion; settings: compared to H I/R animals
Description: (§1) Wistar male rats (age: 6-8 weeks; weight: 200-230 g) were obtained from Experimental Animal Research Centre, King Saud University, Riyadh, K S A. The animals were acclimatized with standard laboratory food and water ad libitum in ventilated cages system (12 h light/dark cycles, 20.3-23.1° C.) then kept throughout the whole experiment under the same conditions.
(§2) Rats were anesthetized with isoflurane with oxygen (2%, 0.5 L/h) throughout the whole surgery, under heat control and aseptic conditions. Animals' abdomen was shaved and sterilized, and a surgical incision (about 3 cm) from the pubic to the sternum was executed. The portal triad, comprising the hepatic artery, portal vein, and common bile duct, was clamped using a micro-vascular clamp for 60 min to prompt ischemia. Hepatic reperfusion was accompanied by releasing the micro-vascular clamp and permitted reperfusion for six hours. The sham-operated animals were subjected to all the procedures that occurred during H I/R, deprived of blood flow blockage.
(§3) 1-Deoxynojirimycin hydrochloride (1-DNJ) was purchased from Merck (Merck & Co., USA, product number D 9305). 1-DNJ was administered by gavage orally after being suspended in 1% carboxymethyl cellulose (CMC) solution. 1-DNJ dose (50 and 100 mg/kg) selection was based on previous studies. A total of 30 Wistar rats were haphazardly assigned into five groups (six rats/group). The sham group in which animals were given vehicle (1% CMC) orally for two weeks and subjected to sham steps. 1-DNJ+Sham group in which rats were administered 1-DNJ (100 mg/kg/day) for two weeks and then subjected to sham steps. Third group, the H I/R group, in which rats were administered 1% CMC for two weeks and then hepatic ischemia for 60 min followed by 6 hours reperfusion was implemented. Finally, 1-DNJ 50+H I/R and 1-DNJ 100+H I/R groups in which rats were pretreated with 1-DNJ (50, 100 mg/kg/day) respectively orally for two weeks, then subjected to hepatic I/R surgical procedure.
(§4) Once the reperfusion period was completed, animals' blood was obtained through the hearts, centrifuged at 4000×g for 15 min at 4° C., and stored at −20° C. to be utilized in the biochemical estimation of liver function tests, including ALT, AST, ALP, and LDH. Moreover, hepatic tissues were isolated, washed in cool PBS, and distributed in three portions. The first part was homogenized with PBS, centrifuged at 10,000×g for 15 min at 4° C., and consumed to evaluate oxidative stress and ELISA biomarkers. The second portion was stored at −20° C. for subsequent qRT-PCR and western blot analysis. The third part was fixed with 10% formalin buffered saline to estimate the histopathological variations as well as the immunohistochemical manifestation.
(§5) One-way ANOVA followed by Tukey-Kramer as a post hoc test were executed for multiple comparisons between different experimental groups. p as a level of probability was set at 0.05, indicating the significance level. All statistical analyses were performed using Graph Pad software (version 8, CA, USA).
Oxidative stress-related biomarkers, including antioxidant and lipid peroxidation enzymes such as CAT, SOD, GST, GSH, MDA, and NO contents, were monitored in the hepatic tissue homogenate. Malondialdehyde (MDA; ab238537), glutathione (GSH, ab65322), glutathione-s-transferase (GST, ab65326), nitric oxide (NO, ab272517) assay kits were purchased from Abeam Inc. (Cambridge, UK). Superoxide dismutase (SOD; MBS036924) and catalase (MBS726781) ELISA kits were obtained from My BioSource (San Diego, CA, USA). All the procedures were executed in accordance with the manufacturer's directions.

H I/R-induced injury [2] = experiment: Histopathological examination (H&E, Suzuki grading) of ischemic liver
Description: as §1, §2
1-Deoxynojirimycin hydrochloride (1-DNJ) was purchased from Merck (Merck & Co., USA, product number D 9305). 1-DNJ was administered by gavage orally after being suspended in 1% carboxymethyl cellulose (CMC) solution. 1-DNJ dose (50 and 100 mg/kg) selection was based on previous studies. A total of 30 Wistar rats were haphazardly assigned into five groups (six rats/group). […]

H I/R-induced injury [3] = experiment: Apoptotic markers (caspase 3, caspase 9) ELISA after hepatic ischemia-reperfusion; settings: compared to H I/R animals
Description: as §1, §2, §3
Once the reperfusion period was completed, animals' blood was obtained through the hearts, centrifuged at 4000×g for 15 min at 4° C., and stored at −20° C. to be utilized in the biochemical estimation of liver function tests, including ALT, AST, ALP, and LDH. Moreover, hepatic tissues were isolated, washed in cool PBS, and distributed in three portions. […]
Inflammation markers including TNF-α (ab46070), […], IL-6 (ab100772) NFκB (ab133112) and IL-10 (ab214566), ELISA kits were obtained from Abcam Co., (Eugene, OR, USA). […] These markers were measured according to the manufacturer's instructions using a microplate reader SpectraMax i3X (Molecular devices San Jose, CA, USA).

H I/R-induced injury [4] = experiment: Hepatic function biomarkers (serum ALT, AST, ALP, LDH) after hepatic ischemia-reperfusion; settings: compared to H I/R animals
Description: as §1, §2, §3, §4, §5
Rat Alanine Aminotransferase (ALT) ELISA kit (ab285264), Aspartate Aminotransferase (AST) ELISA kit (ab263883), and Alkaline Phosphatase (ALP) colorimetric assay kit (ab83369), Lactate Dehydrogenase (LDH) colorimetric assay kit (ab102526) were obtained from Abcam (Boston, MA, USA) and utilized following the manufacturer's instructions.

[5] = 1-DNJ 50 mg/kg/day orally for 2 weeks before H I/R
[6] = 1-DNJ 100 mg/kg/day orally for 2 weeks before H I/R

Cl.OC[C@H]1NC[C@H](O)[C@@H](O)[C@@H]1O [1-DNJ, 1-Deoxynojirimycin hydrochloride]
percentage elevation in CAT (H I/R-induced injury [1]; [5]): 114.24% | percentage elevation in GSH (H I/R-induced injury [1]; [5]): 130.82% | percentage elevation in GST (H I/R-induced injury [1]; [5]): 49.42% | percentage elevation in SOD (H I/R-induced injury [1]; [5]): 60.80% | percentage reduction in MDA (H I/R-induced injury [1]; [5]): 24.18% | percentage reduction in NO (H I/R-induced injury [1]; [5]): 40.77% | percentage elevation in CAT (H I/R-induced injury [1]; [6]): 161.09% | percentage elevation in GSH (H I/R-induced injury [1]; [6]): 194.64% | percentage elevation in GST (H I/R-induced injury [1]; [6]): 99.02% | percentage elevation in SOD (H I/R-induced injury [1]; [6]): 89.51% | percentage reduction in MDA (H I/R-induced injury [1]; [6]): 30.71% | percentage reduction in NO (H I/R-induced injury [1]; [6]): 55.05% | histopathological changes by Suzuki scores (congestion, vacuolation, necrosis) (H I/R-induced injury [2]; 1-DNJ preconditioned animals (50 and 100 mg/kg/day orally, 2 weeks), related to H I/R animals): substantial reduction in hepatic congestion and hepatocellular vacuolation and necrosis | histopathological findings (H&E sections) (H I/R-induced injury [2]; 1-DNJ pretreated groups (50 and 100 mg/kg/day orally, 2 weeks) before H I/R): re-established hepatic parenchyma, less hepatocellular necrosis, fewer congested hepatic sinusoids, and portal vasculatures with slight vacuolation | percentage reduction in caspase 3 (H I/R-induced injury [3]; [5]): 27.62% | percentage reduction in caspase 9 (H I/R-induced injury [3]; [5]): 20.09% | percentage reduction in caspase 3 (H I/R-induced injury [3]; [6]): 41.23% | percentage reduction in caspase 9 (H I/R-induced injury [3]; [6]): 24.86% | percentage reduction in ALP (H I/R-induced injury [4]; [5]): 29.75% | percentage reduction in ALT (H I/R-induced injury [4]; [5]): 22.26% | percentage reduction in AST (H I/R-induced injury [4]; [5]): 26.96% | percentage reduction in LDH (H I/R-induced injury [4]; [5]): 24.39% | percentage reduction in ALP (H I/R-induced injury [4]; [6]): 44.53% | percentage reduction in ALT (H I/R-induced injury [4]; [6]): 43.11% | percentage reduction in AST (H I/R-induced injury [4]; [6]): 41.65% | percentage reduction in LDH (H I/R-induced injury [4]; [6]): 48.63%
